Read-outs that look alike come from different tables or passages of the source.
Assays:
[1] = test system: Laodelphax striatellus; assay: Foliage application test for Laodelphax striatellus (Test Example 2); type: in vivo; conditions: 16-keto aspergillimide 2.5 ppm alone
Source text: (§1) Colby's formula: Theoretical value (%)=100−(A×B)/100

[2] = test system: Aphis gossypii; assay: Foliage application test for Aphis gossypii, cucumber leaf disk (Test Example 3); type: in vivo; conditions: 16-keto aspergillimide 1.25 ppm alone
Source text: Test solutions adjusted to a predetermined concentration (50% aqueous acetone solution; 0.05% Tween 20 added) were applied to a leaf disk having a diameter of 2.0 cm cut out from a cucumber grown in a pot.
as §1

[3] = test system: Nilaparvata lugens which is low-sensitive to imidacloprid; assay: Foliage application test for Nilaparvata lugens, imidacloprid low-sensitive strain (Test Example 4); type: in vivo; conditions: for Death rate (%): low-sensitive strain, 6 days after release
Protocol: (§2) Test solutions adjusted to a predetermined concentration (50% aqueous acetone solution) applied to rice seedlings in a pot for foliage application. […] The test was duplicated.
(§3) For comparison, a test was carried out in the same manner as described above, except that a Nilaparvata lugens strain which is highly sensitive to imidacloprid was used.
(§4) Regarding the origin of the test insect pests, Nilaparvata lugens which is low-sensitive to imidacloprid was an insect which had been collected outdoors in Kumamoto Prefecture, 2007, and Nilaparvata lugens which is sensitive to imidacloprid was an insect which had been collected in Kagoshima Prefecture and was then subjected to indoor successive raising.

[4] = test system: Nilaparvata lugens which is sensitive to imidacloprid; assay: Foliage application test for Nilaparvata lugens, imidacloprid-sensitive strain (Test Example 4, comparison); type: in vivo; conditions: 6 days after release
Protocol: as §2, §3, §4

[5] = test system: Haemaphysalis longicornis; assay: Tickcidal effect against Haemaphysalis longicornis, dry film in glass vial (Test Example 5); type: in vivo; conditions: Haemaphysalis longicornis, 48 h, 2 days after release; for pest or weed control at 1 ppm: 16-keto aspergillimide 1 ppm alone; for pest or weed control at 2 ppm: 16-keto aspergillimide 2 ppm alone
Protocol: Acetone solutions (30 μl) adjusted to predetermined concentrations were placed in 4 mL-volume glass vials. The vials were placed on a shaker, and a dry film of the compound was prepared on the inner wall of the vials. The vials were dried for 24 hr or more. Larvae (10 or more heads) were released in the vials, and the vials were lidded. The vials were then left to stand in a humidistat chamber (25° C., humidity 85%, fully darkened conditions). […] The test was duplicated.
as §1

[6] = test system: Haemaphysalis longicornis; assay: Tickicidal effect against Haemaphysalis longicornis on body surface of mouse (Test Example 6); type: in vivo; conditions: for Death rate (%): mouse body surface, 3 days after release
Protocol: Skin hair on the back of mouse (ICR, male, 5 week olds) was clipped in a diameter of about 2 cm, and a 15-mL polystyrene conical tube cut to have a height of about 1.5 cm was bonded to the body surface of the mouse with an instant adhesive. Test solutions (20 μl) adjusted with ethanol were dropped on the body surface of mice within the bonded tube. After thorough drying, larvae (10 or more heads) were released within the tube, and the tube was lidded. […] The test was hexaplicated.
as §1

[7] = test system: Laodelphax striatellus; assay: Root dipping application test, Laodelphax striatellus (Reference Test Example 1); type: in vivo
Source text: (§5) A test solution adjusted to a predetermined concentration (10% aqueous acetone solution) was applied to the root of wheat seedlings in water culture. […] The test was duplicated.
As is apparent from Table 15, the systemic insecticidal activity of 16-keto aspergillimide was much higher than that of a control compound, Asperparaline A.
The 16-keto aspergillimide and Asperparaline A used in this test were obtained according to methods described in The Journal of Antibiotics, 1997, 50(10), 840-846. This is true of the following test examples.

[8] = test system: Trigonotylus caelestialium; assay: Root dipping application test, Trigonotylus caelestialium (Reference Test Example 2); type: in vivo
Source text: as §5

[9] = test system: Nilaparvata lugens; assay: Soil drenching application test, Nilaparvata lugens (Reference Test Example 3); type: in vivo
Source text: (§6) A test solution adjusted to a predetermined concentration (10% aqueous acetone solution) was applied to rice seedlings in a pot by soil drenching. The rice seedlings were allowed to stand for 3 days. […] The test was duplicated.

[10] = test system: Sogatella furcifera; assay: Soil drenching application test, Sogatella furcifera (Reference Test Example 4); type: in vivo
Protocol: as §6
The death rate against larvae at the second instar born of Sogatella furcifera was calculated in the same manner as in Reference Test Example 3.

[11] = test system: Nephotettix cincticeps; assay: Soil drenching application test, Nephotettix cincticeps (Reference Test Example 5); type: in vivo
Protocol: as §6
The death rate against second instar larvae was calculated in the same manner as in Reference Test Example 3.

[12] = test system: Frankliniella occidentalis; assay: Soil drenching application test, Frankliniella occidentalis (Reference Test Example 6); type: in vivo
Source text: A test solution adjusted to a predetermined concentration (10% aqueous acetone solution) was applied to cucumber seedlings in pot couture by soil drenching. The cucumber seedlings were allowed to stand for 4 days. A leaf disk having a diameter of 2.8 cm was then cut out from cucumber seedlings, and first instar larvae were released. […] The test was duplicated.

[13] = test system: Sogatella furcifera; assay: Foliage application test, Sogatella furcifera (Reference Test Example 7); type: in vivo
Source text: (§7) A test solution adjusted to a predetermined concentration (10% aqueous acetone solution) was applied to rice seedlings in pot culture. […] The test was duplicated.

[14] = test system: Nephotettix cincticeps; assay: Foliage application test, Nephotettix cincticeps (Reference Test Example 8); type: in vivo
Protocol: as §7
The death rate against larvae at the second instar born of Nephotettix cincticeps was calculated in the same manner as in Reference Test Example 7.

[15] = test system: Frankliniella occidentalis; assay: Foliage application test, Frankliniella occidentalis, haricot leaf disk (Reference Test Example 9); type: in vivo
Source text: A leaf disk having a diameter of 2.8 cm was cut out from haricot in pot culture, and a test solution adjusted to a predetermined concentration (50% aqueous acetone solution, with 0.05% Tween 20 added) was applied thereto. The leaf disk was air-air dried, and first instar larvae were released.

[16] = test system: larvae at the third instar born of Haemonchus contortus; conditions: The Journal of Antibiotics, 1997, 50(10), 840-846; cited from earlier work
[17] = test system: Laodelphax striatellus; assay: Laodelphax striatellus soil drenching application test (Test Example 1); conditions: 16-keto aspergillimide 0.2 mg/seedling alone
Protocol: Test solutions adjusted to a predetermined concentration (10% aqueous acetone solution) were applied to rice seedling in a pot by soil drenching. The rice seedling was allowed to stand for 3 days. Second instar larvae were released and was then allowed to stand in a humidistat chamber (light period 16 hr−dark period 8 hr) (25° C.).
Death rate (%)={number of dead larvae/(number of survived larvae+number of dead larvae)}×100
wherein A: 100−(death rate when application was performed only with 16-keto aspergillimide); and

[18] = read-out: Death rate (%), Table 9
[19] = read-out: Death rate (%), Table 10
[20] = 16-keto aspergillimide 1 μg/2 cm^2 alone
[21] = 0.5 μg/seedling, wheat seedlings, 3 days after release
[22] = 1.0 mg/seedling, rice seedlings, 3 days after release
[23] = 100 ppm, rice seedlings, 3 days after release

## C[C@H]1CC(=O)N2C[C@]34C[C@]5(CC(=O)N(C)C5=O)C(C)(C)[C@@H]3C[C@]12C(=O)N4C [16-Keto aspergillimide, 16-keto aspergillimide]
[1]
  Theoretical value (%) calculated by the Colby's formula: 65%
[1]; foliage application, 3 days after release
  Death rate (%): 65%
[2]
  Theoretical value calculated by the Colby's formula (%): 26%
[2]; leaf disk, 3 days after release
  Death rate (%): 26%
[3]; Table 7 against Table 8
  death rate for the low-sensitive strain compared with the high-sensitive strain: the same
[3]; treatment concentration 5 ppm
  Death rate (%): 60%
[3]; treatment concentration 20 ppm
  Death rate (%): 95%
[3]; treatment concentration 50 ppm
  Death rate (%): 100%
[4]; treatment concentration 5 ppm
  Death rate (%): 95%
[4]; treatment concentration 20 ppm
  Death rate (%): 100%
[4]; treatment concentration 50 ppm
  Death rate (%): 100%
[5]; [18]
  pest or weed control at 1 ppm: 10%
  pest or weed control at 2 ppm: 17%
[5]; [19]
  pest or weed control at 1 ppm: 14%
  pest or weed control at 2 ppm: 20%
[6]; [20]
  Theoretical value (%) by Colby's formula: 22%
  Death rate (%): 22%
[6]; 16-keto aspergillimide 2 μg/2 cm^2 alone
  Death rate (%): 57%
[6]; 16-keto aspergillimide alone
  Theoretical value (%) by Colby's formula: 57%
[7]; [21]
  Death rate (%) for each amount of test chemical compound: 100%
[7]; Table 15
  systemic insecticidal activity compared with control compound Asperparaline A: much higher
[8]
  systemic insecticidal activity: exhibited systemic insecticidal activity
[8]; [21]
  Death rate (%): 100%
[9]
  systemic insecticidal activity: exhibited systemic insecticidal activity
[9]; [22]
  Death rate (%): 100%
[10]
  systemic insecticidal activity: exhibited systemic insecticidal activity
[10]; [22]
  Death rate (%): 100%
[11]
  systemic insecticidal activity: exhibited systemic insecticidal activity
[11]; [22]
  Death rate (%): 100%
[12]
  systemic insecticidal activity: exhibited systemic insecticidal activity
[12]; 2.0 mg/seedling, cucumber seedlings, 6 days after release
  Death rate (%): 100%
[13]
  insecticidal activity by foliage application: exhibited insecticidal activity
[13]; [23]
  Death rate (%): 100%
[14]
  insecticidal activity in foliage application: exhibited insecticidal activity
[14]; [23]
  Death rate (%): 100%
[15]; 100 ppm, haricot leaf disk, 3 days after release
  Death rate (%): 100%
[15]; foliage application
  insecticidal activity by foliage application: exhibited insecticidal activity
[16]
  anthelmintic activity: anthelmintically active
[17]
  Theoretical value (%) calculated by the Colby's formula: 30%
[17]; soil drenching, 3 days after release
  Death rate (%): 30%
